Measurements: ChEMBL document CHEMBL2016477, “Pimarane diterpenes from the fungus Epicoccum sp. HS-1 associated with Apostichopus japonicus” (Bioorg Med Chem Lett, 2012)
≈ marks a conversion by molar mass, not a printed value.

Key:
[1] = Cytotoxicity against multidrug resistant human KBv200 cells expressing p-glycoprotein; assay type: functional, cell-based
[2] = test system: KB; experiment: Cytotoxicity against human KB cells; assay type: functional, cell-based

With C=C[C@]1(C)C=C2[C@@H](O)C[C@H]3C(C)(C)CCC[C@]3(C)[C@@]2(O)CC1 the IC50 [1] was > 100 µg/mL and the IC50 [2] was > 100 µg/mL.
C=C[C@]1(C)C=C2C(=O)[C@@]3(O)OC[C@@]4(CCCC(C)(C)[C@@]43O)[C@@]2(O)[C@H](O)C1 [DIAPORTHINS B] showed an IC50 [1] of 6.52 µg/mL (≈ 17.9 µM) and an IC50 [2] of 3.86 µg/mL (≈ 10.6 µM).
Work on C=C[C@]1(C)C=C2C(=O)C(O)=C3C(C)(C)CCC[C@]3(C)[C@@]2(O)CC1 yielded an IC50 [1] of 14.5 µg/mL (≈ 45.7 µM) and an IC50 [2] of 20.7 µg/mL (≈ 65.5 µM).
